According to BindingDB's records for doi:10.1016/j.bmc.2018.07.019 (The Scripps Research Institute, 2018):

Experiment: Inhibition of ATG-Myc (unknown origin) expressed in CEF cells assessed as inhibition of microtumor formation

## COc1ccc(-c2cc(-c3ccc(C(N)=O)cc3)nc(-c3ccccc3)n2)cc1
  IC50: > 100 µM

## N#Cc1ccc(-c2cc(-c3ccc(C(N)=O)cc3)nc(-c3cc[n+]([O-])cc3)n2)cc1
  IC50: > 100 µM

## NC(=O)c1ccc(-c2cc(-c3ccc(-c4cnco4)cc3)nc(-c3ccco3)c2)cc1
  IC50: 2.5 µM

## NC(=O)c1ccc(-c2cc(-c3ccc(-c4nccs4)cc3)nc(-c3ccco3)c2)cc1
  IC50: 5 µM

## Cn1ccnc1-c1cc(-c2ccc(C(N)=O)cc2)cc(-c2ccc(C#N)cc2)n1
  IC50: 40 µM

## N#Cc1ccc(-c2cc(-c3ccc(C(N)=O)cc3)cc(-c3cncs3)n2)cc1
  IC50: 30 µM

## N#Cc1ccc(-c2cc(-c3ccc(C(N)=O)cc3)nc(-c3ccco3)n2)cc1
  IC50: 7 µM

## N#Cc1ccc(-c2cc(-c3ccc(C(N)=O)cc3)cc(-c3cccc(F)c3)n2)cc1
  IC50: > 100 µM

## N#Cc1ccc(-c2cc(-c3ccc(C(=O)NN)cc3)cc(-c3ccco3)n2)cc1
  IC50: > 100 µM

## CS(=O)(=O)NC(=O)c1ccc(-c2cc(-c3ccc(C#N)cc3)nc(-c3ccco3)c2)cc1
  IC50: 10 µM

## N#Cc1ccc(-c2cc(-c3ccc(-c4nnn[nH]4)cc3)cc(-c3ccco3)n2)cc1
  IC50: 2 µM

## c1coc(-c2cc(-c3nccs3)cc(-c3ccc(-c4nccs4)cc3)n2)c1
  IC50: > 100 µM

## N#Cc1ccc(-c2cc(-c3ccc(C(N)=O)cc3)cc(-c3cnco3)n2)cc1
  IC50: 5 µM

## N#Cc1ccc(-c2cc(-c3ccc(C(N)=O)cc3)cc(-c3ccco3)n2)cc1
  IC50: 3 µM

## Cn1nncc1-c1cc(-c2ccc(C(N)=O)cc2)cc(-c2ccc(C#N)cc2)n1
  IC50: 40 µM
